# Reference: ChEMBL document CHEMBL1150921, “Organochlorine compounds from a terrestrial higher plant: structures and origin of chlorinated orcinol derivatives from diseased bulbs of Lilium maximowiczii” (1998)
# The source made the active and inactive calls. The rule behind the calls is not given here.
# Legend:
# [1] = test system: Bipolaris leersiae; assay: Antifungal activity against Bipolaris leersiae assessed as inhibition of conidial germination at 300 ppm after 24 hrs by microscopy; format: functional
# [2] = test system: Bipolaris leersiae; assay: Antifungal activity against Bipolaris leersiae assessed as inhibition of conidial germination at 500 ppm after 24 hrs by microscopy; format: functional
# [3] = test system: Bipolaris leersiae; assay: Antifungal activity against Bipolaris leersiae assessed as inhibition of conidial germination at 100 ppm after 24 hrs by microscopy; format: functional
# [4] = test system: Bipolaris leersiae; assay: Antifungal activity against Bipolaris leersiae assessed as inhibition of conidial germination at 10 ppm after 24 hrs by microscopy; format: functional
# [5] = test system: Bipolaris leersiae; assay: Antifungal activity against Bipolaris leersiae assessed as inhibition of conidial germination at 50 ppm after 24 hrs by microscopy; format: functional, organism-based
# [6] = test system: Bipolaris leersiae; assay: Antifungal activity against Bipolaris leersiae assessed as inhibition of conidial germination at 1000 ppm after 24 hrs by microscopy; format: functional, organism-based
SMILES,Activity [1],Activity [2],inhibition at 100 ppm [3],Activity [4],Activity [5],Activity [3],inhibition at 300 ppm [1],inhibition at 500 ppm [2],Activity [6],inhibition at 10 ppm [4]
Cc1cc(O)cc(O)c1Cl,Active,Active,80%,,,,,,,
COc1c(Cl)c(C)c(Cl)c(O)c1Cl,Active,Active,,Active,Active,Active,,,,
Cc1cc(O)c(Cl)c(O)c1,Active,Active,80%,,,,,,,
COc1c(O)c(C)c(Cl)c(OC)c1Cl,Active,Active,,,Active,Active,,,,
Cc1cc(O)cc(O)c1 [ORCINOL],,,30%,,,,30%,80%,Active,
COc1cc(OC)c(Cl)c(C)c1Cl,,,,,,inactive,,,,
COc1c(O)c(C)c(Cl)c(O)c1Cl,Active,Active,,,Active,Active,,,,80%
